Assay results: patent US6127136A, “Detection of dioxin-like compounds by detection of transformed Ah receptor/ARNT complex” (Paracelsian, Inc., priority 1996, dated 2000)

Target: transformed Ah receptor/ARNT complex (Cavia porcellus, UniProt Q6J287)
Assay: sandwich ELISA detecting transformed Ah receptor/ARNT complex, DRE and anti-ARNT dilutions
Type: biochemical, guinea pig (hepatic cytosol)
Set-up: from tissue; host or cells: hepatic cytosol of male Hartley guinea pigs (animals from Cornell Research Animal Resources)
Procedure: Working dilution of anti-ARNT was diluted (1:200, 50 uL in 10 mL) in PBS plus 0.02% tween 20 plus 0.1% bovine serum albumin. Working dilution of anti-Rabbit/alkaline phosphatase (Sigma, St. Louis, Mo.) was prepared by diluting 20 uL into 20 mL PBS plus 0.02% tween 20 plus 0.1% bovine serum albumin to make a 1:1000 dilution. Diethanolamine buffer was prepared by dissolving 0.4 g Magnesium chloride hexahydrate, 0.8 g sodium azide, 338 mL diethanolamine in 2.5 L deionized water, adjusting pH to 9.8 with concentrated HCl, and adjusting volume to 4 liters. PnPP stock was prepared fresh by dissoving two 15 mg tablets of para-nitro phenyl phosphate (Sigma, St. Louis, Mo.) in 20 mL diethanolamine buffer.
B-DRE (sequence ID 2) and DRE-D (sequence ID 1) were hybridized as described above. Cytosol was prepared as described above. Thirty five mL of cytosol was thawed and pooled. The cytosol was divided into two 17 mL aliquots and treated with either 17 uL DMSO, sample labled (-) or 17 uL 10 uM TCDD in DMSO with the sample labled (+). DMSO-treated cytosol (1700 uL) was mixed with 10.6 uL hybridized DRE (sample labeled B-). TCDD-treated cytosol (1700 uL) was mixed with 10.6 uL hybridized DRE (sample labeled B+).
A neutravidin-coated 96 well ELISA plate (Pierce), with the standard 12×8 well matrix, labeled 1-12 horizontally and A-H vertically, was warmed to room temperature. DMSO treated cytosol (-) was put in wells A2-A12 x D2-D12 at 200 uL per well. TCDD treated cytosol (+) was put in wells E2-E12 x H2-H12 at 200 uL per well. Untreated Cytosol plus DRE sample (B-), 400 uL per well, was put in wells A1-D1. Treated Cytosol sample plus DRE (13+), 400 uL per well, was put in wells […]. The Untreated cytosol plus DRE sample (B-) and treated cytosol sample plus DRE (B+) were then serially diluted 1:1 across the plate, resulting in a serial dilution of DRE in either 200 uL treated or 200 uL untreated cytosol. The last column (A12H12) contained 400 uL, so 200 uL of that was discarded. Highest dilution of DRE in column A1-H1 was arbitrarily called 1, with the other dilutions labeled 0.5, 0.25 . . . 0.0005 respectively.
The ELISA plate was incubated with gentle rocking for 2 hours to allow the transformaton of Ah receptor, binding of Ah receptor with ARNT, and binding of the Ah receptor/ARNT complex to the biotinylated DRE, and binding of the biotinylated DRE to the neutravidin bound to the ELISA plate.
After 2 hours the plate was washed 3 times with 300 uL PBS plus 0.02% tween 20 and 400 uL of the working dilution of anti-ARNT added to rows A1-A12 and E1-E12 of the ELISA plate. 200 uL of PBS plus 0.02% tween 20 plus 0.1% bovine serum albumin was added to the remaining wells. […] After 2 hours the plate was washed as before and working dilution (1:1000) of anti-rabbit/alkaline phosphatase conjugate was added to all wells. The plate was incubated for a further 1 hour at room temperature with gentle rocking and then washed as before. PnPP stock was added to each well (200 uL) and the plate was incubated for 1 hour, at which time it was read at 405 nm in an ELISA plate reader and milli O.D. recorded.

transformed Ah receptor/ARNT complex, sequence (Q6J287 1-846): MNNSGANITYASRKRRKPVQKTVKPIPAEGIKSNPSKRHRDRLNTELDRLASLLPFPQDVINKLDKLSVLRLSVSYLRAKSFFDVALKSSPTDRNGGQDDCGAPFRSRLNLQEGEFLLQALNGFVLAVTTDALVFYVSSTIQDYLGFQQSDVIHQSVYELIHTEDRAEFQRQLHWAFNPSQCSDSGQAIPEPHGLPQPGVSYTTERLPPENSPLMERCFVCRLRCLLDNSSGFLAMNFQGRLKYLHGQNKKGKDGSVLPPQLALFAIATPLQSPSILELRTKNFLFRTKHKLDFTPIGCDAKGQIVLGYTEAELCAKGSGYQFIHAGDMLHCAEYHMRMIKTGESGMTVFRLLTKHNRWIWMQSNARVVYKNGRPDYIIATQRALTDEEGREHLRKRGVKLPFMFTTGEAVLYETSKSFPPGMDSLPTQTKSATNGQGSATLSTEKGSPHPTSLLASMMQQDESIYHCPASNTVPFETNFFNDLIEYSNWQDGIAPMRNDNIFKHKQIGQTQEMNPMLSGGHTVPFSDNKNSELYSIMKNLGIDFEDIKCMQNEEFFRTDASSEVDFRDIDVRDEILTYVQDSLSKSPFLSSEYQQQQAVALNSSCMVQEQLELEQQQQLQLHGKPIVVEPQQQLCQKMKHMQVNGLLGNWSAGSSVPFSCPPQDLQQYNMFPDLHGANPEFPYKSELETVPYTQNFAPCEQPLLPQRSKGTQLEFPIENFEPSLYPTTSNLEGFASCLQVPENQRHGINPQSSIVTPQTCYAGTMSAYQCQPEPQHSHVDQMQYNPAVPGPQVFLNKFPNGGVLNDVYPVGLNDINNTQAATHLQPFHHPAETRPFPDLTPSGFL
transformed Ah receptor/ARNT complex, sequence (Q0WXX3 1-790 partner): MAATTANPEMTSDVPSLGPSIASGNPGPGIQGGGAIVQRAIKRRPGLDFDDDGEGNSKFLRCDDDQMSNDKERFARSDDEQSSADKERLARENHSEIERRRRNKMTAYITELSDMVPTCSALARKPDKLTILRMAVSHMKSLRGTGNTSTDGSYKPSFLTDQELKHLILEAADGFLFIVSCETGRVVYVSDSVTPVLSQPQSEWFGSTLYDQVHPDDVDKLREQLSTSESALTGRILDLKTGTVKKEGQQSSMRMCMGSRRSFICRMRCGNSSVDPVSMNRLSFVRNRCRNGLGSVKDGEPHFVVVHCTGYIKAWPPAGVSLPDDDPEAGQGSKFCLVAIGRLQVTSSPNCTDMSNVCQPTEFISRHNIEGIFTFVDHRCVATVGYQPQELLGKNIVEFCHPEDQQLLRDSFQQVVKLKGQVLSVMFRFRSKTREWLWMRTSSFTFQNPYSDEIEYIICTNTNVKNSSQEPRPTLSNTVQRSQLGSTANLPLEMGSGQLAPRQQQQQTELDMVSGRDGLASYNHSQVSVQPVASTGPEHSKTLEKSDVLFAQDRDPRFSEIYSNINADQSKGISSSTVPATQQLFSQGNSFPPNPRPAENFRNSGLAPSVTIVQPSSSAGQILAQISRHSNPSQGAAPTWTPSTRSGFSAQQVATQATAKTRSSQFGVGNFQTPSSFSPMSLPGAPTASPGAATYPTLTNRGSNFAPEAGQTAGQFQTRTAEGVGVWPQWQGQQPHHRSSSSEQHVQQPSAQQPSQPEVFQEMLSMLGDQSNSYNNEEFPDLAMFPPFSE

Clc1cc2c(cc1Cl)Oc1cc(Cl)c(Cl)cc1O2 [TCDD, 2,3,7,8-tetrachlorodibenzo-p-dioxin]
response in sandwich ELISA (Example 7 conclusion): gives a differential response
O.D. at 405 nm (anti-ARNT dilution 0.000625, DRE dilution 0.002, TCDD (+)): 463 milli O.D.
O.D. at 405 nm (anti-ARNT dilution 0.000625, DRE dilution 0.004, TCDD (+)): 595 milli O.D.
O.D. at 405 nm (anti-ARNT dilution 0.000625, DRE dilution 0.008, TCDD (+)): 726 milli O.D.
O.D. at 405 nm (anti-ARNT dilution 0.000625, DRE dilution 0.016, TCDD (+)): 639 milli O.D.
O.D. at 405 nm (anti-ARNT dilution 0.000625, DRE dilution 0.031, TCDD (+)): 562 milli O.D.
O.D. at 405 nm (anti-ARNT dilution 0.000625, DRE dilution 0.063, TCDD (+)): 480 milli O.D.
O.D. at 405 nm (anti-ARNT dilution 0.000625, DRE dilution 0.125, TCDD (+)): 411 milli O.D.
O.D. at 405 nm (anti-ARNT dilution 0.000625, DRE dilution 0.25, TCDD (+)): 392 milli O.D.
O.D. at 405 nm (anti-ARNT dilution 0.000625, DRE dilution 0.5, TCDD (+)): 393 milli O.D.
O.D. at 405 nm (anti-ARNT dilution 0.000625, DRE dilution 1, TCDD (+)): 408 milli O.D.
O.D. at 405 nm (anti-ARNT dilution 0.000625, DRE dilution 1E-03, TCDD (+)): 442 milli O.D.
O.D. at 405 nm (anti-ARNT dilution 0.000625, DRE dilution 5E-04, TCDD (+)): 480 milli O.D.
O.D. at 405 nm (anti-ARNT dilution 0.00125, DRE dilution 0.002, TCDD (+)): 595 milli O.D.
O.D. at 405 nm (anti-ARNT dilution 0.00125, DRE dilution 0.004, TCDD (+)): 932 milli O.D.
O.D. at 405 nm (anti-ARNT dilution 0.00125, DRE dilution 0.008, TCDD (+)): 1070 milli O.D.
O.D. at 405 nm (anti-ARNT dilution 0.00125, DRE dilution 0.016, TCDD (+)): 916 milli O.D.
O.D. at 405 nm (anti-ARNT dilution 0.00125, DRE dilution 0.031, TCDD (+)): 767 milli O.D.
O.D. at 405 nm (anti-ARNT dilution 0.00125, DRE dilution 0.063, TCDD (+)): 537 milli O.D.
O.D. at 405 nm (anti-ARNT dilution 0.00125, DRE dilution 0.125, TCDD (+)): 487 milli O.D.
O.D. at 405 nm (anti-ARNT dilution 0.00125, DRE dilution 0.25, TCDD (+)): 406 milli O.D.
O.D. at 405 nm (anti-ARNT dilution 0.00125, DRE dilution 0.5, TCDD (+)): 393 milli O.D.
O.D. at 405 nm (anti-ARNT dilution 0.00125, DRE dilution 1, TCDD (+)): 387 milli O.D.
O.D. at 405 nm (anti-ARNT dilution 0.00125, DRE dilution 1E-03, TCDD (+)): 484 milli O.D.
O.D. at 405 nm (anti-ARNT dilution 0.00125, DRE dilution 5E-04, TCDD (+)): 498 milli O.D.
O.D. at 405 nm (anti-ARNT dilution 0.0025, DRE dilution 0.002, TCDD (+)): 922 milli O.D.
O.D. at 405 nm (anti-ARNT dilution 0.0025, DRE dilution 0.004, TCDD (+)): 1281 milli O.D.
O.D. at 405 nm (anti-ARNT dilution 0.0025, DRE dilution 0.008, TCDD (+)): 1682 milli O.D.
O.D. at 405 nm (anti-ARNT dilution 0.0025, DRE dilution 0.016, TCDD (+)): 1486 milli O.D.
O.D. at 405 nm (anti-ARNT dilution 0.0025, DRE dilution 0.031, TCDD (+)): 1125 milli O.D.
O.D. at 405 nm (anti-ARNT dilution 0.0025, DRE dilution 0.063, TCDD (+)): 804 milli O.D.
O.D. at 405 nm (anti-ARNT dilution 0.0025, DRE dilution 0.125, TCDD (+)): 608 milli O.D.
O.D. at 405 nm (anti-ARNT dilution 0.0025, DRE dilution 0.25, TCDD (+)): 532 milli O.D.
O.D. at 405 nm (anti-ARNT dilution 0.0025, DRE dilution 0.5, TCDD (+)): 544 milli O.D.
O.D. at 405 nm (anti-ARNT dilution 0.0025, DRE dilution 1, TCDD (+)): 585 milli O.D.
O.D. at 405 nm (anti-ARNT dilution 0.0025, DRE dilution 1E-03, TCDD (+)): 680 milli O.D.
O.D. at 405 nm (anti-ARNT dilution 0.0025, DRE dilution 5E-04, TCDD (+)): 722 milli O.D.
O.D. at 405 nm (anti-ARNT dilution 0.005, DRE dilution 0.002, TCDD (+)): 1524 milli O.D.
O.D. at 405 nm (anti-ARNT dilution 0.005, DRE dilution 0.004, TCDD (+)): 2029 milli O.D.
O.D. at 405 nm (anti-ARNT dilution 0.005, DRE dilution 0.008, TCDD (+)): 2558 milli O.D.
O.D. at 405 nm (anti-ARNT dilution 0.005, DRE dilution 0.016, TCDD (+)): 2122 milli O.D.
O.D. at 405 nm (anti-ARNT dilution 0.005, DRE dilution 0.031, TCDD (+)): 1706 milli O.D.
O.D. at 405 nm (anti-ARNT dilution 0.005, DRE dilution 0.063, TCDD (+)): 1202 milli O.D.
O.D. at 405 nm (anti-ARNT dilution 0.005, DRE dilution 0.125, TCDD (+)): 963 milli O.D.
O.D. at 405 nm (anti-ARNT dilution 0.005, DRE dilution 0.25, TCDD (+)): 777 milli O.D.
O.D. at 405 nm (anti-ARNT dilution 0.005, DRE dilution 0.5, TCDD (+)): 765 milli O.D.
O.D. at 405 nm (anti-ARNT dilution 0.005, DRE dilution 1, TCDD (+)): 771 milli O.D.
O.D. at 405 nm (anti-ARNT dilution 0.005, DRE dilution 1E-03, TCDD (+)): 1070 milli O.D.
O.D. at 405 nm (anti-ARNT dilution 0.005, DRE dilution 5E-04, TCDD (+)): 1191 milli O.D.
